Data on 31 compounds can be found in patent US9469615B2, “Quinoxalines and AZA-quinoxalines as CRTH2 receptor modulators” (Merck Sharp & Dohme Corp., priority 2010, dated 2016).

This assay deals with T1, hCRTH2 (Homo sapiens, UniProt Q9Y5Y4).
T1 construct: expressed in transfected cells; host or cells: HEK (human embryonic kidney) cells expressing hCRTH2; membrane preparation
T1 sequence (Q9Y5Y4 1-395): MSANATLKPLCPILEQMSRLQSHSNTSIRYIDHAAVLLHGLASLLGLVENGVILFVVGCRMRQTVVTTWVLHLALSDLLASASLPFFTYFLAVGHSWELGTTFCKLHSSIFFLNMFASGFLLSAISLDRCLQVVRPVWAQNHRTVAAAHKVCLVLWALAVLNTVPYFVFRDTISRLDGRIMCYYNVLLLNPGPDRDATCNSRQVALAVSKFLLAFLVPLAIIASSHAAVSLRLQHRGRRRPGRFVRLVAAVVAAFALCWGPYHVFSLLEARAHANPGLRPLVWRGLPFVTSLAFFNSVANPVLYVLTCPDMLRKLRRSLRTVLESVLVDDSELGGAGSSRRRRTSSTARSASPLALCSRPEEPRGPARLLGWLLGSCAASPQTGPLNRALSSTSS
The experiment in a line: Radioligand binding assay ([3H]PGD2 competition, HEK-hCRTH2 membranes). Put shortly: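 Displacement of 3.0 nM [3H]PGD2 from human CRTH2 expressed in HEK membranes was measured at room temperature over 60 min. Unlabelled PGD2 at 10 μM gave non-specific binding.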

[1] abbreviates: [3H]PGD2 binding, rated A-E (Table A).

Molecules are shown by their SMILES.

As usually defined, the Ki is the dissociation constant of the complex between target and ligand, obtained from inhibition or displacement. A low value points to higher affinity. `C[C@H](CCc1nc2cc(C(=O)N[C@H](C)c3ccc(F)cc3)ccc2nc1-c1ccc(F)cc1)CC(=O)O` [compound 437, (R)-5-(3-(4-fluorophenyl)-7-(((R)-1-(4-fluorophenyl)ethyl)carbamoyl)quinoxalin-2-yl)-3-methylpentanoic acid] came in with a Ki ([3H]PGD2 competition, Table B) of 20.1 to 200 nM.

For the compound `O=C(O)CCCCc1nc2cc(C(=O)c3ccccc3)ccc2nc1-c1ccc(F)cc1` [5G], the Ki under setting [1] was 0.1 to 2 nM.

Under “[3H]PGD2 competition, Table B”, `C[C@@H](NC(=O)c1ccc2nc(-c3ccc(Cl)cc3)c(CCCCC(=O)O)nc2c1)c1ccc(C#N)cc1` [compound 403, (R)-5-(3-(4-chlorophenyl)-7-((1-(4-cyanophenyl)ethyl)carbamoyl)quinoxalin-2-yl)pentanoic acid] returned a Ki of 0.1 to 2 nM.

`O=C(O)CCCCc1nc2cc(C(=O)Nc3ccccc3)ccc2nc1-c1ccccc1` [15AA, 5-[3-phenyl-7-(phenylcarbamoyl)quinoxalin-2-yl] pentanoic acid] had a Ki under setting [1] of 20.1 to 200 nM.

Turning to `CC(CCCc1nc2cc(C(=O)N[C@@H](C)c3ccc(F)cc3)ccc2nc1-c1ccc(F)cc1)C(=O)O` (stereo partly drawn) [compound 210, 3-(4-fluorophenyl)-7-[[[1(S)-(4-fluorophenyl)ethyl]amino]carbonyl]-alpha-methyl-2-quinoxalinepentanoic acid], the Ki under setting [1] fell in the range of 2.1 to 20 nM.

On to `C[C@@H](NC(=O)c1ccc2nc(-c3ccc(C(F)(F)F)cc3)c(CCCCC(=O)O)nc2c1)c1ccccn1` [compound 147, 7-[[[1(R)-(2-pyridinyl)ethyl]amino]carbonyl]-3-[4-(trifluoromethyl)phenyl]-2-quinoxalinepentanoic acid], for which, under setting [1], the Ki is 2.1 to 20 nM.

`COC(=O)c1ccc2nc(-c3ccccc3)c(OCCCC(=O)O)nc2c1` [compound 9, 4-{[7-(Methoxycarbonyl)-3-phenylquinoxalin-2-yl]oxy}butanoic Acid] gave a Ki under setting [1] of 2.1 to 20 nM.

For the setting “[3H]PGD2 competition, Table B”, `O=C(O)CCCCc1nc2cc(C(=O)N3CCN(c4ccccc4)C(=O)C3)ccc2nc1-c1ccccc1` [compound 350, 5-(7-(3-oxo-4-phenylpiperazine-1-carbonyl)-3-phenylquinoxalin-2-yl)pentanoic acid] came in with a Ki of 20.1 to 200 nM.

For the setting “[3H]PGD2 competition, Table B”, `CC(CCCc1nc2cc(C(=O)N[C@H](C)c3ccc(F)cc3)ccc2nc1-c1ccccc1)C(=O)O` (stereo partly drawn) [compound 461, 5-(7-(((R)-1-(4-fluorophenyl)ethyl)carbamoyl)-3-phenylquinoxalin-2-yl)-2-methylpentanoic acid] registered a Ki of 2.1 to 20 nM.

On to `O=C(O)CCCCc1nc2cc(C(=O)N3CCC4(CC3)OCc3ccccc34)ccc2nc1-c1ccc(F)cc1` [compound 362, 5-(3-(4-fluorophenyl)-7-(3H-spiro[isobenzofuran-1,4′-piperidin]-1′-ylcarbonyl)quinoxalin-2-yl)pentanoic acid], for which, under “[3H]PGD2 competition, Table B”, the Ki lay in the range of 2.1 to 20 nM.

Regarding `O=C(O)Cc1cccc(CCc2nc3cc(C(=O)NCc4cccc(Cl)c4)ccc3nc2-c2ccc(Cl)cc2)c1` [19i, 3-[2-[3-(4-chlorophenyl)-7-[[[(3-chlorophenyl)methyl]amino]carbonyl]-2-quinoxalinyl]ethyl] benzeneacetic acid], under setting [1], the Ki is 2.1 to 20 nM.

Regarding `O=C(O)CCCCc1nc2cc(C(=O)N3CC[C@H](c4ccccc4)C3)ccc2nc1-c1ccc(Cl)cc1` [16L, 3-(4-chlorophenyl)-7-[(3(R)-phenyl-1-pyrrolidinyl)carbonyl]-2-quinoxalinepentanoic acid], the Ki under setting [1] was in the range of 2.1 to 20 nM.

Compound `C[C@@H](CCCc1nc2cc(C(=O)N[C@@H]3CCCc4cc(Cl)ccc43)ccc2nc1-c1ccc(F)cc1)C(=O)O` [compound 519, (S)-5-(7-(((R)-6-chloro-1,2,3,4-tetrahydronaphthalen-1-yl)carbamoyl)-3-(4-fluorophenyl)quinoxalin-2-yl)-2-methylpentanoic acid] displayed a Ki ([3H]PGD2 competition, Table B) of 2.1 to 20 nM.

Compound `O=C(O)CCCCc1nc2cc(C(=O)N3CCN(c4ccccc4C(F)(F)F)CC3)ccc2nc1-c1ccc(F)cc1` [compound 363, 5-(3-(4-fluorophenyl)-7-(4-(2-(trifluoromethyl)phenyl)piperazine-1-carbonyl)quinoxalin-2-yl)pentanoic acid] displayed a Ki ([3H]PGD2 competition, Table B) of 2.1 to 20 nM.

Take `O=C(O)CCCCc1nc2cc(C(=O)N[C@H]3CCc4ccccc43)ccc2nc1-c1ccc(Cl)cc1` [16AP, 3-(4-chlorophenyl)-7-[[(2,3-dihydro-1H-inden-1(S)-yl)amino]carbonyl]-2-quinoxalinepentanoic acid]: the Ki under setting [1] is 0.1 to 2 nM.

For `C[C@@H](NC(=O)c1ccc2nc(-c3ccccc3)c(CC3CC(C(=O)O)C3)nc2c1)c1ccc(F)cc1` (stereo partly drawn) [compound 422, (R)-3-((7-((1-(4-fluorophenyl)ethyl)carbamoyl)-3-phenylquinoxalin-2-yl)methyl)cyclobutanecarboxyl acid], where the note is “[3H]PGD2 competition, Table B”, the Ki was in the range of 2.1 to 20 nM.

Compound `C[C@@H](CCCc1nc2cc(C(=O)N[C@H](C)c3ccc(Cl)cc3)ccc2nc1-c1ccc(F)cc1)C(=O)O` [compound 517, (S)-5-(7-(((R)-1-(4-chlorophenyl)ethyl)carbamoyl)-3-(4-fluorophenyl)quinoxalin-2-yl)-2-methyl-pentanoic acid] registered a Ki ([3H]PGD2 competition, Table B) of 2.1 to 20 nM.

Consider `CN(Cc1cccc(F)c1)C(=O)c1ccc2nc(-c3ccc(F)cc3)c(CCc3cccc(CC(=O)O)c3)nc2c1` [compound 201], for which the Ki under setting [1] lay within 0.1 to 2 nM.

`C[C@@H]1CN(c2ccc(Cl)cc2)CCN1C(=O)c1ccc2nc(-c3ccc(F)cc3)c(CCCCC(=O)O)nc2c1` [compound 540, (R)-5-(7-(4-(4-chlorophenyl)-2-methylpiperazine-1-carbonyl)-3-(4-fluorophenyl)quinoxalin-2-yl)pentanoic acid] gave a Ki ([3H]PGD2 competition, Table B) of 2.1 to 20 nM.

For `C[C@H](NC(=O)c1ccc2nc(-c3ccc(F)cc3)c(CCCCC(=O)O)nc2c1)c1cccc2ccccc12` [compound 536, (S)-5-(3-(4-fluorophenyl)-7-((1-(naphthalen-1-yl)ethyl)carbamoyl)quinoxalin-2-yl)pentanoic acid], the Ki ([3H]PGD2 competition, Table B) was 2.1 to 20 nM.

Regarding `CC(CCc1nc2cc(C(=O)N3CCC(c4ccccc4)CC3)ccc2nc1-c1ccc(Cl)cc1)CC(=O)O` (stereo not drawn) [compound 17, 3-(4-chlorophenyl)-beta-methyl-7-[(4-phenyl-1-piperidinyl)carbonyl]-2-quinoxalinepentanoic acid], under setting [1], the inhibition constant (Ki) lay within 2.1 to 20 nM.

Consider `O=C(N[C@@H](c1ccccc1)C(F)(F)F)c1ccc2nc(-c3ccc(Cl)cc3)c(CC3CCC(C(=O)O)C3)nc2c1` (stereo partly drawn) [compound 405, 3-((3-(4-chlorophenyl)-7-(((S)-2,2,2-trifluoro-1-phenylethyl)carbamoyl)quinoxalin-2-yl)methyl)cyclopentane-carboxylic acid], for which the inhibition constant Ki ([3H]PGD2 competition, Table B) lay within 2.1 to 20 nM.

For `C[C@H](NC(=O)c1ccc2nc(-c3ccc(F)cc3)c(CCCCC(=O)O)nc2c1)c1ccc(F)cn1` [compound 472, (S)-5-(3-(4-fluorophenyl)-7-((1-(5-fluoropyridin-2-yl)ethyl)carbamoyl)quinoxalin-2-yl)pentanoic acid], for the setting “[3H]PGD2 competition, Table B”, the Ki lay within 20.1 to 200 nM.

For `CC(CCCc1nc2cc(C(=O)NCc3ccc(F)cc3)ccc2nc1-c1ccc(Cl)cc1)C(=O)O` (stereo not drawn) [compound 161, 3-(4-chlorophenyl)-7-[[[(4-fluorophenyl)methyl]amino]carbonyl]-alpha-methyl-2-quinoxalinepentanoic acid], the inhibition constant Ki under setting [1] lay in the range of 2.1 to 20 nM.

In the case of `CC1(C)CC(NC(=O)c2ccc3nc(-c4ccc(Cl)cc4)c(CCCCC(=O)O)nc3c2)c2ccccc2O1` (centres unmarked) [compound 564, 5-(3-(4-chlorophenyl)-7-((2,2-dimethylchroman-4-yl)carbamoyl)quinoxalin-2-yl)pentanoic acid], the Ki ([3H]PGD2 competition, Table B) lay within 2.1 to 20 nM.

For the compound `O=C(O)CCCCc1nc2cc(C(=O)N3CCCC34CCc3ccncc34)ccc2nc1-c1ccc(Cl)cc1` (centres unmarked) [compound 658, 5-(3-(4-chloro-phenyl)-7-(5,6-dihydrospiro [cyclopenta[c]pyridine-7,2′-pyrrolidin]-1′-ylcarbonyl)quinoxalin-2-yl)pentanoic acid], the Ki ([3H]PGD2 competition, Table B) is 20.1 to 200 nM.

For `O=C(O)CCCCc1nc2cc(C(=O)NCc3ccc(Cl)cc3)cnc2nc1-c1ccccc1` [14D, 5-{7-[(4-chlorobenzyl)-carbamoyl]-3-phenylpyrido[2,3-b]pyrazin-2-yl} pentanoic acid], under setting [1], the Ki is 2.1 to 20 nM.

`COc1cc(C(F)(F)F)ccc1-c1nc2ccc(C(=O)N3CCC(c4ccccc4)CC3)cc2nc1CCCCC(=O)O` [26V, 3-[2-methoxy-4-(trifluoromethyl)phenyl]-7-[(4-phenyl-1-piperidinyl)carbonyl]-2-quinoxalinepentanoic acid]: under setting [1], the Ki is 0.1 to 2 nM.

Regarding `O=C(O)CCCCc1nc2cc(C(=O)N3CCC4(CC3)CCN(c3ccccc3)C4=O)ccc2nc1-c1ccc(Cl)cc1` [compound 634, 5-(3-(4-chlorophenyl)-7-(1-oxo-2-phenyl-2,8-diazaspiro[4.5]decane-8-carbonyl)quinoxalin-2-yl)pentanoic acid], the inhibitory constant (Ki) ([3H]PGD2 competition, Table B) is 2.1 to 20 nM.

Take `O=C(O)Cc1cccc(CCc2nc3cc(C(=O)NCc4cccc(F)c4)ccc3nc2-c2ccc(F)cc2)c1` [compound 192, 3-[2-[3-(4-fluorophenyl)-7-[[[(3-fluorophenyl)methyl]amino]carbonyl]-2-quinoxalinyl]ethyl]benzencacetic acid]: the Ki under setting [1] lay in the range of 2.1 to 20 nM.

For the compound `O=C(O)CCCCc1nc2cc(C(=O)N3CCN(S(=O)(=O)c4ccccc4)CC3)ccc2nc1-c1ccccc1` [15o, 5-(3-phenyl-7-{[4-(phenylsulfonyl)piperazin-1-yl]carbonyl}quinoxalin-2-yl)pentanoic acid], the Ki was 2.1 to 20 nM under setting [1] and 16.7 nM ([3H]PGD2 binding, values in text).
